Assay results published in publication PMC9898036, “VIP152 is a selective CDK9 inhibitor with pre-clinical in vitro and in vivo efficacy in chronic lymphocytic leukemia” (Leukemia, 2022).

Tests used:
MRCKB = MRCKB (Homo sapiens, UniProt Q9Y5S2); test: KINOMEscan: MRCKB; type: binding; conditions: 1000 nM, read-out: Percent Control
FLT3-autoinhibited = FLT3-autoinhibited (Homo sapiens, UniProt P36888); test: KINOMEscan: FLT3-autoinhibited; type: binding; conditions: 1000 nM, read-out: Percent Control
DDR2 = DDR2 (Homo sapiens, UniProt Q16832); test: KINOMEscan: DDR2; type: binding; conditions: 1000 nM, read-out: Percent Control
Adenosine A1 = Adenosine A1 (Homo sapiens, UniProt P30542); test: Eurofins Diversity Panel; type: binding; conditions: hum, Conc. 10 μM
Adenosine A1, sequence (P30542 whole entry): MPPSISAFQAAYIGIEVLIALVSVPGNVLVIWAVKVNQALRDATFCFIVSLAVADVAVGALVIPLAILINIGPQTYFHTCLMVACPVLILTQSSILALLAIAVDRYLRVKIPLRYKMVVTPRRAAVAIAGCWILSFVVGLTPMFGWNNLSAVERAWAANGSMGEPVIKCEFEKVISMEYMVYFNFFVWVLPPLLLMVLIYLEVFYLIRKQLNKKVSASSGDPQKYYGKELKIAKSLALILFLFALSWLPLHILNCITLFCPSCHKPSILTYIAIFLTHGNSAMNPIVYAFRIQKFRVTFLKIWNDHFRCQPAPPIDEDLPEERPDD

MAP4K3 = MAP4K3 (Homo sapiens, UniProt Q8IVH8); test: KINOMEscan: MAP4K3; type: binding; conditions: 1000 nM, read-out: Percent Control
Histamine H2 = Histamine H2 (Homo sapiens, UniProt P25021); test: Eurofins Diversity Panel; type: binding; conditions: hum, Conc. 10 μM
Histamine H2, sequence (P25021 whole entry): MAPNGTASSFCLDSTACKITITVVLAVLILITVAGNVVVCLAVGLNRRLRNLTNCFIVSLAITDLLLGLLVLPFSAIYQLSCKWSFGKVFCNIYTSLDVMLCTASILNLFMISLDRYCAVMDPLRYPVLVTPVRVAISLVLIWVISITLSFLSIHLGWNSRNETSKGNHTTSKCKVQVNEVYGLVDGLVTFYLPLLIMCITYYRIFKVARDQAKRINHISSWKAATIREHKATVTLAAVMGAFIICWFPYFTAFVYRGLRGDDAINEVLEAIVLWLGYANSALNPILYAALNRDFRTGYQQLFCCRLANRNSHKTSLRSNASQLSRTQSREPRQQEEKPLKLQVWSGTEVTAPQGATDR

FLT1 = FLT1 (Homo sapiens, UniProt P17948); test: KINOMEscan: FLT1; type: binding; conditions: 1000 nM, read-out: Percent Control
BRAF = BRAF (Homo sapiens, UniProt P15056); test: KINOMEscan: BRAF; type: binding; conditions: 1000 nM, read-out: Percent Control
MAP3K15 = MAP3K15 (Homo sapiens, UniProt Q6ZN16); test: KINOMEscan: MAP3K15; type: binding; conditions: 1000 nM, read-out: Percent Control
TNK1 = TNK1 (Homo sapiens, UniProt Q13470); test: KINOMEscan: TNK1; type: binding; conditions: 100 nM, read-out: Percent Control
FLT3(ITD,F691L) = test: KINOMEscan: FLT3(ITD,F691L); type: binding, human; conditions: 1000 nM
TAOK2 = TAOK2 (Homo sapiens, UniProt Q9UL54); test: KINOMEscan: TAOK2; type: binding; conditions: 100 nM, read-out: Percent Control
CSNK1G1 = CSNK1G1 (Homo sapiens, UniProt Q9HCP0); test: KINOMEscan: CSNK1G1; type: binding; conditions: 1000 nM, read-out: Percent Control
GRK7 = GRK7 (Homo sapiens, UniProt Q8WTQ7); test: KINOMEscan: GRK7; type: binding; conditions: 1000 nM, read-out: Percent Control
CTK = CTK (Homo sapiens, UniProt P42679); test: KINOMEscan: CTK; type: binding; conditions: 1000 nM, read-out: Percent Control
TLK2 = TLK2 (Homo sapiens, UniProt Q86UE8); test: KINOMEscan: TLK2; type: binding; conditions: 100 nM, read-out: Percent Control
TLK2, sequence (Q86UE8 whole entry): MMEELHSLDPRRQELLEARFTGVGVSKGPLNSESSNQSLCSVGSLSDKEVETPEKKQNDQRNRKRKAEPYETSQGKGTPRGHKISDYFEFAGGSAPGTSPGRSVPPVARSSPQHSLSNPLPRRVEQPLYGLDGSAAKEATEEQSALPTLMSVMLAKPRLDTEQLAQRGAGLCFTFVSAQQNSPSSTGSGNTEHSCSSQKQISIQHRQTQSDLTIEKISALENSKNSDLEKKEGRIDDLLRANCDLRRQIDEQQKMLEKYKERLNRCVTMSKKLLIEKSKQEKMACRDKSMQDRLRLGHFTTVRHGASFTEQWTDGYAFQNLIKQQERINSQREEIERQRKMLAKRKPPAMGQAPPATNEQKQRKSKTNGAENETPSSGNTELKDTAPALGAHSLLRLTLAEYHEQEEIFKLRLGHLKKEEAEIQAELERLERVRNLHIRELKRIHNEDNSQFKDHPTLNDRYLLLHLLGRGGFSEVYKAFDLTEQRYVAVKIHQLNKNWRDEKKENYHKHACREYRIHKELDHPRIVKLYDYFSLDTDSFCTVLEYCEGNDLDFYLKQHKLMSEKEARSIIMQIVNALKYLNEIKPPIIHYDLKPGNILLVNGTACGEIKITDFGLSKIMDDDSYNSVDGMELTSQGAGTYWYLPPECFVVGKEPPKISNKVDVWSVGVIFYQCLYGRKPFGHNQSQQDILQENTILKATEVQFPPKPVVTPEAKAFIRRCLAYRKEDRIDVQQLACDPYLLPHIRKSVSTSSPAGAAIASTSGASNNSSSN

IRAK1 = IRAK1 (Homo sapiens, UniProt P51617); test: KINOMEscan: IRAK1; type: binding
IRAK1, sequence (P51617 whole entry): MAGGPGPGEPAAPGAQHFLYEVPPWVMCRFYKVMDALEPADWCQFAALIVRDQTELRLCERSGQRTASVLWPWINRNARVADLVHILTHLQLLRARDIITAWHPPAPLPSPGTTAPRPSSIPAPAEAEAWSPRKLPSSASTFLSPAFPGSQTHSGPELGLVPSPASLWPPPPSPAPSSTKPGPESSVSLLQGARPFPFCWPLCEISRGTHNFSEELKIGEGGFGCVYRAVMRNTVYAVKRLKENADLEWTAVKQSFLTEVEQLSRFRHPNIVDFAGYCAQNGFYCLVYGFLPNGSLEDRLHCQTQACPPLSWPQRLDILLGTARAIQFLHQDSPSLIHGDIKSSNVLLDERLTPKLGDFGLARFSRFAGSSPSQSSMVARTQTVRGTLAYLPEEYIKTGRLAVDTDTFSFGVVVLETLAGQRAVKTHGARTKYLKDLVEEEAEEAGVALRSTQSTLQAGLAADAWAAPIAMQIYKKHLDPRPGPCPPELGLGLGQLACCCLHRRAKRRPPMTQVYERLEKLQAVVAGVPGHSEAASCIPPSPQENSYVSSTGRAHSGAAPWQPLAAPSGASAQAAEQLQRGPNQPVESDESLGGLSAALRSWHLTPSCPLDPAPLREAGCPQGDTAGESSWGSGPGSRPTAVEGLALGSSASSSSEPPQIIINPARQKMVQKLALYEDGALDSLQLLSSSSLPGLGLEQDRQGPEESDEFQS
Method: The structure and synthesis of VIP152 were recently described by Lücking et al.. (Fig. 1A); however, the selectivity of the molecule in cellular systems has yet to be explored. […] We also performed this experiment at 1000 nM, where CDK9 was inhibited at 99%. […] We found a strong concordance between our data and those of Lücking when comparing the most inhibited kinases. Potential off-target effects of VIP152 were next tested in vitro at a concentration of 10 µM for off-target activity against a broad range of receptors, transporters, ion channels, and enzymes (n = 138) using the Eurofins Diversity Panel.
Kinomescan Kinase Profiling Assay
Kinomescan Assay was performed at DiscoverRX and described in Fabian, et al. 2005, Nat.
Biotechnol. In brief, kinases were produced and subsequently tagged with DNA for qPCR detection.
Streptavidin-coated magnetic beads were bound to biotinylated kinase ligands to serve as a solid support.
VIP152 was dissolved in DMSO and tested across a 10 serial threefold dilution set and compared to a test compound and a DMSO control. Kinases which were inhibited by VIP152 would not be bound to the solid-support resulting in decreased substrate for the qPCR reaction. Kinome map was produced via TreeSpot Analysis from DiscoverRX. […]
NanoBRETTM Target Engagement Assay Protocol […]
Complete 20X NanoBRET Tracer Reagent was prepared with Tracer Dilution Buffer and dispensed at a ratio of 1:20 Reagent to cells in the tube. The cell

DRAK1 = DRAK1 (Homo sapiens, UniProt Q9UEE5); test: KINOMEscan: DRAK1; type: binding; conditions: 1000 nM, read-out: Percent Control
FRK = FRK (Homo sapiens, UniProt P42685); test: KINOMEscan: FRK; type: binding; conditions: 1000 nM, read-out: Percent Control
CAMK1B = CAMK1B (Homo sapiens, UniProt Q6P2M8); test: KINOMEscan: CAMK1B; type: binding; conditions: 1000 nM, read-out: Percent Control
CAMK1B, sequence (Q6P2M8 whole entry): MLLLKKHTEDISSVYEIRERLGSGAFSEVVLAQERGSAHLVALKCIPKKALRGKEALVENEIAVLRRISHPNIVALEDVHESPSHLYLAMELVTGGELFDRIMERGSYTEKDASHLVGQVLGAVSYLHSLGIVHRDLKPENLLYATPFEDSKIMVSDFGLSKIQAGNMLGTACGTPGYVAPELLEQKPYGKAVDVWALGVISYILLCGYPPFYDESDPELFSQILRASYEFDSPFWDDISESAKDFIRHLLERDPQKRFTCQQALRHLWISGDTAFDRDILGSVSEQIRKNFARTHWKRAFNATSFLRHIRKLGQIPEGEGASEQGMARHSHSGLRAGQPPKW

CDKL3 = CDKL3 (Homo sapiens, UniProt Q8IVW4); test: KINOMEscan: CDKL3; type: binding; conditions: 1000 nM, read-out: Percent Control
LZK = LZK (Homo sapiens, UniProt O43283); test: KINOMEscan: LZK; type: binding; conditions: 1000 nM, read-out: Percent Control
LZK, sequence (O43283 whole entry): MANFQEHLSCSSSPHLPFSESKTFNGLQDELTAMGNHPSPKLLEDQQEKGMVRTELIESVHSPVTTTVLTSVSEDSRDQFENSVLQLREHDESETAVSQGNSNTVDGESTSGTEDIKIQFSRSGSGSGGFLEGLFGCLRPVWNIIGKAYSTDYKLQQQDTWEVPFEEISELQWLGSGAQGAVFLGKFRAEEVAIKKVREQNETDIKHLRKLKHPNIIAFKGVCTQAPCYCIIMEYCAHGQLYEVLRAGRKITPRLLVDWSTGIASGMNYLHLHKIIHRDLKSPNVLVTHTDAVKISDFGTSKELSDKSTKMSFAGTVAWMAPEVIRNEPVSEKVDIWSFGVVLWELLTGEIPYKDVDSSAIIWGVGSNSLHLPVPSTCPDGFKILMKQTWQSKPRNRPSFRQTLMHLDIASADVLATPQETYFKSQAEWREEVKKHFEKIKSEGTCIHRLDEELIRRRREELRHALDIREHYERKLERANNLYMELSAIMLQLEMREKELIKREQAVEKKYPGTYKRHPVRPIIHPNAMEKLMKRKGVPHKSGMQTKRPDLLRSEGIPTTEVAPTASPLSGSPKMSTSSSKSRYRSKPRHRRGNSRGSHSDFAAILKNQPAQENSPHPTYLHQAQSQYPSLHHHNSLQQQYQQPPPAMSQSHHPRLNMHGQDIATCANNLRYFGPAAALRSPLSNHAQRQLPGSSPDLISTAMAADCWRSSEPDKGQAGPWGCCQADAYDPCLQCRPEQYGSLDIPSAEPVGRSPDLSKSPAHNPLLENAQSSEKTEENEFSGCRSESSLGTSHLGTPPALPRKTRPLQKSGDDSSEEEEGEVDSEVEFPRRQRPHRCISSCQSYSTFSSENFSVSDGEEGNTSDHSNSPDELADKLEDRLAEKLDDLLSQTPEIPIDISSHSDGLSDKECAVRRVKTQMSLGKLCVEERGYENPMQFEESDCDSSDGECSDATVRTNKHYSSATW

SGK = SGK (Homo sapiens, UniProt O00141); test: KINOMEscan: SGK; type: binding; conditions: 100 nM, read-out: Percent Control
SGK, sequence (O00141 whole entry): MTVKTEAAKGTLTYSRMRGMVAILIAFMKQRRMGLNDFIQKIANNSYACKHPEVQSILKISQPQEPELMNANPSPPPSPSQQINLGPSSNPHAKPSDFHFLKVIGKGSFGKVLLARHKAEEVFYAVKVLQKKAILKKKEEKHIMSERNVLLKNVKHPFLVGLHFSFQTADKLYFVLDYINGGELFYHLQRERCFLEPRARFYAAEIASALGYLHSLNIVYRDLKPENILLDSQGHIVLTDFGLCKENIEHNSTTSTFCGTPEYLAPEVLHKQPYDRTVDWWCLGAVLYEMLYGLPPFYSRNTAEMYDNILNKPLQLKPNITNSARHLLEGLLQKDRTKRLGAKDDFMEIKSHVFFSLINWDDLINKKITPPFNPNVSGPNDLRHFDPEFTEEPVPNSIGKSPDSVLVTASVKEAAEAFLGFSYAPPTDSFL

Rolipram = test: Eurofins Diversity Panel; type: binding; conditions: rat, Conc. 10 μM
EPHA6 = EPHA6 (Homo sapiens, UniProt Q9UF33); test: KINOMEscan: EPHA6; type: binding; conditions: 1000 nM, read-out: Percent Control
EPHA6, sequence (Q9UF33 23-1036): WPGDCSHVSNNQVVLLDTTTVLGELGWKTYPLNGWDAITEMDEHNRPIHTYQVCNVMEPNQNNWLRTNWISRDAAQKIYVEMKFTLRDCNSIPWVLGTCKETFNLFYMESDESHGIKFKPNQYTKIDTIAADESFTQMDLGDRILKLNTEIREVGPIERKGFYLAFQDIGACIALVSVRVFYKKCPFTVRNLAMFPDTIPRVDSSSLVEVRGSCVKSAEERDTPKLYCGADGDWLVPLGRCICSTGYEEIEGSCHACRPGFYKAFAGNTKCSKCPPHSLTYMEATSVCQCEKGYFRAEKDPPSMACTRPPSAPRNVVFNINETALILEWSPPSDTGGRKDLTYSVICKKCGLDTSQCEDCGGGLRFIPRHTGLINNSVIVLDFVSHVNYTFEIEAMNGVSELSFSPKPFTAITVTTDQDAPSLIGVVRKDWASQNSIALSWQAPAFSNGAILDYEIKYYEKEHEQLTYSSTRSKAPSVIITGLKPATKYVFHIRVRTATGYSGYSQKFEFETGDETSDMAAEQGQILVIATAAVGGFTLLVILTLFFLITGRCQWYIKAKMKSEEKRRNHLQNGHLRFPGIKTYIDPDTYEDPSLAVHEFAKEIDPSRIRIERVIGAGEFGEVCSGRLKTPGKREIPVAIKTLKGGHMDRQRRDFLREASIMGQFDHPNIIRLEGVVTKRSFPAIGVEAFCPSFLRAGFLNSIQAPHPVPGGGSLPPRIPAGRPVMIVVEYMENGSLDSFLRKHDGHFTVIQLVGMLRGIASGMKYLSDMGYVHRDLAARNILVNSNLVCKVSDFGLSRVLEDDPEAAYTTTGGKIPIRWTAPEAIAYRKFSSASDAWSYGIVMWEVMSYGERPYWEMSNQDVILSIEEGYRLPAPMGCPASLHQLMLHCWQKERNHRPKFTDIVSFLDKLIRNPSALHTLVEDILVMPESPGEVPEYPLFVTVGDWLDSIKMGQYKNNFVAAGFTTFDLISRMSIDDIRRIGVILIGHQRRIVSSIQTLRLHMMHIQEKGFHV

KIT(L576P) = KIT(L576P) (Homo sapiens, UniProt P10721, L576P); test: KINOMEscan: KIT(L576P); type: binding; conditions: 1000 nM, read-out: Percent Control
YES = YES (Homo sapiens, UniProt P07947); test: KINOMEscan: YES; type: binding; conditions: 100 nM, read-out: Percent Control
WNK2 = WNK2 (Homo sapiens, UniProt Q9Y3S1); test: KINOMEscan: WNK2; type: binding; conditions: 100 nM, read-out: Percent Control

In the case of `COc1cc(F)ccc1-c1cc(Nc2cc(CS(C)(=N)=O)ccn2)ncc1F` (stereo not drawn) [VIP152], the remaining binding at 1 µM (MRCKB) is reported as 59%, the remaining binding at 1 µM (FLT3-autoinhibited) is reported as 76% and the remaining binding at 1 µM (DDR2) is reported as 27%. The inhibition at 10 µM (Adenosine A1) was 4%, the remaining binding at 1 µM (MAP4K3) was 57% and the inhibition at 10 µM (Histamine H2) was 23%. It also gave a remaining binding at 1 µM (FLT1) of 86%, a remaining binding at 1 µM (BRAF) of 55% and a remaining binding at 1 µM (MAP3K15) of 93%. The remaining binding at 0.1 µM (TNK1) was 100%, the “Percent Control” value (FLT3(ITD,F691L)) was 78% and the remaining binding at 0.1 µM (TAOK2) was 92%. For the same compound, the remaining binding at 1 µM (CSNK1G1) was 91%, the remaining binding at 1 µM (GRK7) was 87% and the remaining binding at 1 µM (CTK) was 84%. The remaining binding at 0.1 µM (TLK2) was 100%, the inhibition at 1 µM (IRAK1; 1000 nM) was 98.4% and the remaining binding at 0.1 µM (IRAK1; IRAK1, 100 nM, read-out: Percent Control) was 59%. The remaining binding at 1 µM (IRAK1; IRAK1, 1000 nM, read-out: Percent Control) was 1.6%, the remaining binding at 1 µM (DRAK1) was 71% and the remaining binding at 1 µM (FRK) was 47%. For the same compound, the remaining binding at 1 µM (CAMK1B) was 98%, the remaining binding at 1 µM (CDKL3) was 53% and the remaining binding at 1 µM (LZK) was 100%. For the same compound, the remaining binding at 0.1 µM (SGK) was 100%, the “% Inh.” value (Rolipram) was 1% and the remaining binding at 1 µM (EPHA6) was 90%. The remaining binding at 1 µM (KIT(L576P)) was 72%, the remaining binding at 0.1 µM (YES) was 100% and the remaining binding at 0.1 µM (WNK2) was 100%.
